The source of these data is patent publication US7384966B2, “2-arylbenzothiazole derivatives” (Pharminxo Limited, priority 2004, dated 2008).

The test system of one data set is KM 12. In words: MTT assay, 3 day exposure, KM12. It counts as cell-based, human. To be noted: KM 12 (colon), read-out: GI50 values in cell lines, KM 12. On the procedure:
(§1) A range of compounds were evaluated in MTT assays following 3 day exposure against a panel of two human breast cancer cell lines MCF-7 (ER+) and MDA 468 (ER−), and two colon cancer cell lines KM12 and HCC 2998. In general the breast cell lines were more sensitive to the agents and the MDA 468 line the most sensitive of the four (Table 2). The benchmark active compound was 5-fluoro-2-(3,4-dimethoxyphenyl)benzothiazole (1) with GI50 values<0.1 nM against the two breast cell lines. […] The most interesting series of compounds were those combining a 5-fluoro group with two oxygenated substituents in the 3′,4′-positions where minor, seemingly conservative, structural changes were associated with a dramatic variations in activity (when compared to 1). […] In summary, this in vitro screen led to the identification of the fluorinated 2-(3,4-dimethoxyphenyl)benzothiazole structure as a novel antitumor pharmacophore with the 5-fluoro analogue (1) astride a pinnacle of activity.
(§2) The assays/methods used to generate the results referred to herein are well known to those skilled in the art and therefore it has not been necessary to describe them in detail.
(In general: Formazan colour is commonly taken as a measure of viable cells.)

For a further data set, the system named is HCC 2998. The experiment in a line: MTT assay, 3 day exposure, HCC 2998. The settings on record: Homo sapiens, read-out: GI50 values in cell lines, HCC 2998. It counts as cell-based. The procedure: as §1, §2
The next data set concerns MCF-7. In words: MTT assay, 3 day exposure, MCF-7. It counts as cell-based. To be noted: Homo sapiens, read-out: GI50 values in cell lines, MCF-7. The procedure: as §1, §2
In the next data set the test system is MDA 468. In words: MTT assay, 3 day exposure, MDA 468. It counts as cell-based. To be noted: Homo sapiens, MDA 468 (breast), read-out: GI50 values in cell lines, MDA 468. On the procedure:
as §1, §2

Data set [1] has as its system MCF-7, MDA 468, KM12 and HCC 2998. In words: MTT assay, panel of four cell lines, results in words. It counts as cell-based, human. The settings on record: compared to compound 1. On the procedure:
as §1

Setting [2] is: Homo sapiens, KM12, 72 h, MTT, 3 day exposure, triplicate.
Where [3] appears, read: HCC 2998, 72 h, HCC 2998 (colon), MTT, 3 day exposure, triplicate.
[4] abbreviates: MCF7, 72 h, MCF-7 (breast), MTT, 3 day exposure, triplicate.
[5] abbreviates: 72 h, MTT, 3 day exposure, triplicate.
Where [6] appears, read: MCF7, MCF-7 (breast), value in nM.

Structures are written as SMILES. Read-outs that look alike come from different tables or passages of the source. Bounds are passed on as bounds.

For orientation: melting point means the temperature of the solid-liquid transition. On to `COc1ccc(-c2nc3cc(F)ccc3s2)cc1OC(=O)c1cccc([N+](=O)[O-])c1` [Compound 17, 5-Fluoro-2-[3-(3-nitrobenzoyloxy)-4-methoxyphenyl]benzothiazole], for which the melting point amounted to 212 °C.
As usually defined, the GI50 is the concentration giving 50% growth inhibition. For `COc1ccc(-c2nc3cc(Br)ccc3s2)cc1OC` [Compound 24, 5-Bromo-2-(3,4-dimethoxyphenyl)benzothiazole], the melting point lay in the range of 157 to 158 °C. Also, the GI50 in the data set on KM 12 (setting [2]) came to 65200 nM. Besides, the GI50 with HCC 2998 (setting [3]) was 20000 nM. The GI50 in the data set with MCF-7 (setting [4]) came to 13600 nM. Further, the 50% growth inhibitory concentration (GI50) with MDA 468 (setting [5]) came to 770 nM. Moreover, the “growth inhibitory potency in words” value in data set [1] was “essentially abolished inhibitory potency”.
Regarding `CCOc1ccc(-c2nc3cc(F)ccc3s2)cc1OCC` [Compound 46, 2-(3,4-Diethoxyphenyl)-5-fluorobenzothiazole], the melting point was 109 to 113 °C. For the same compound, the GI50 with KM 12 (setting [2]) came to 38500 nM. In the data set on MCF-7 (setting [4]), the GI50 was found to be 0.7 nM. In addition, the GI50 with MCF-7 (setting [6]) was 0.7 nM. The GI50 in the data set with MDA 468 (setting [5]) was determined as 55 nM. For the same compound, the “growth inhibitory potency in words” value in data set [1] is recorded as “dyschemotherapeutic effect”.
`COc1ccc(-c2nc3cc(F)ccc3s2)cc1F` [Compound 25, 5-Fluoro-2-(3-fluoro-4-methoxyphenyl)benzothiazole] gave a melting point of 157 to 159 °C. Further, the GI50 with KM 12 (setting [2]) was determined as 20600 nM. The GI50 with HCC 2998 (setting [3]) was found to be 13700 nM. Also, in the data set with MCF-7 (setting [4]), the GI50 was 870 nM. Further, the concentration for 50% growth inhibition (GI50) in the data set with MDA 468 (setting [5]) was 640 nM.
As for `COc1ccc(-c2nc3cc(Cl)ccc3s2)cc1OC` [Compound 23, 5-Chloro-2-(3,4-dimethoxyphenyl)benzothiazole], the melting point was in the range of 154 to 155 °C. In addition, in the data set with KM 12 (setting [2]), the concentration for 50% growth inhibition (GI50) was 12400 nM. Also, the GI50 with HCC 2998 (setting [3]) was 4880 nM. For the same compound, the GI50 with MCF-7 (setting [4]) was 27900 nM. The GI50 in the data set on MDA 468 (setting [5]) turned out to be 1000 nM. Moreover, the “growth inhibitory potency in words” value in data set [1] is on record as “essentially abolished inhibitory potency”.
The compound `COc1cc(-c2nc3cc(F)ccc3s2)ccc1O` [Compound 6, 5-Fluoro-2-(4-hydroxy-3-methoxyphenyl)benzothiazole] gave a melting point of 156 °C. Further, the “growth inhibitory potency in words” value in data set [1] is “dyschemotherapeutic effect”.
Take `COc1ccc(-c2nc3cc(F)ccc3s2)cc1C` [Compound 22, 5-Fluoro-2-(4-methoxy-3-methylphenyl)benzothiazole]: the melting point turned out to be 120 °C. The GI50 in the data set on KM 12 (setting [2]) was 18600 nM. In the data set on HCC 2998 (setting [3]), the GI50 was 540 nM. In the data set with MCF-7 (setting [4]), the GI50 was 48 nM. In addition, in the data set with MDA 468 (setting [5]), the GI50 is 58 nM.
Turning to `COc1ccc(-c2nc3cc(F)ccc3s2)cc1OC(=O)N1CCOCC1` [Compound 19, 5-Fluoro-2-[3-(morpholin-4-ylcarbonyloxy)-4-methoxyphenyl]benzothiazole], the melting point turned out to be 170 °C. Besides, in the data set with KM 12 (setting [2]), the GI50 is 7140 nM. Moreover, the GI50 in the data set on HCC 2998 (setting [3]) came to 7530 nM. Moreover, in the data set with MCF-7 (setting [6]), the GI50 amounted to 0.085 nM. Moreover, in the data set with MDA 468 (value in nM), the GI50 was determined as 0.64 nM.
As for `CCC(=O)Oc1cc(-c2nc3cc(F)ccc3s2)ccc1OC` [Compound 13, 5-Fluoro-2-(3-propionyloxy-4-methoxyphenyl)benzothiazole], the melting point was 150 °C.
The same measure, in the same setting: the value for `COc1cc(-c2nc3cc(F)ccc3s2)ccc1OC(=O)c1cccc([N+](=O)[O-])c1` [Compound 21, 5-Fluoro-2-[4-(3-nitrobenzoyloxy)-3-methoxyphenyl]benzothiazole] was 190 °C; that for `CCCC(=O)Oc1cc(-c2nc3cc(F)ccc3s2)ccc1OC` [Compound 47, 2-(3-Butyroyloxy-4-methoxyphenyl)-5-fluorobenzothiazole] was 125 °C.
In turn, `COc1ccc(-c2nc3cc(F)ccc3s2)cc1Br` [Compound 27, 2-(3-Bromo-4-methoxyphenyl)-5-fluorobenzothiazole] had a melting point of 173 to 175 °C. Moreover, the GI50 with KM 12 (setting [2]) came out at 6700 nM. The GI50 in the data set on HCC 2998 (setting [3]) is 3450 nM. Also, in the data set on MCF-7 (setting [4]), the 50% growth inhibitory concentration (GI50) amounted to 850 nM. Moreover, the GI50 with MDA 468 (setting [5]) came out at 420 nM.
In the case of `COc1ccc(-c2sc3ccc(F)cc3[n+]2[O-])cc1OC` [Compound 53, 2-(3,4-Dimethoxyphenyl)-5-fluorobenzothiazole N-oxide], the melting point turned out to be 201.4 °C. Besides, the GI50 in the data set on KM 12 (setting [2]) is > 100000 nM. In the data set with HCC 2998 (setting [3]), the GI50 worked out at 40300 nM. Besides, the GI50 in the data set on MCF-7 (setting [4]) is 920 nM. The GI50 with MDA 468 (setting [5]) came to 760 nM.
In turn, `COc1ccc(-c2nc3cc(F)ccc3s2)cc1OC(=O)c1ccccc1` [Compound 14, 2-(3-Benzoyloxy-4-methoxyphenyl)-5-fluorobenzothiazole] gave a melting point of 160 °C.
Still for that read-out and setting: the value for `COc1ccc(-c2nc3cc(F)ccc3s2)cc1OC(C)=O` [Compound 11, 2-(3-Acetoxy-4-methoxyphenyl)-5-fluorobenzothiazole] was 190 °C.
`COc1ccc(-c2nc3cc(F)ccc3s2)cc1Cl` [Compound 26, 5-fluoro 2-(3-Chloro-4-methoxyphenyl)benzothiazole]: the GI50 amounted to 7050 nM in the data set with KM 12 (setting [2]), 2500 nM in the data set on HCC 2998 (setting [3]), 760 nM with MCF-7 (setting [4]) and 480 nM with MDA 468 (setting [5]).
Regarding `COc1ccc(-c2nc3cc(F)ccc3s2)cc1OC(=O)c1ccc([N+](=O)[O-])cc1` [Compound 18, 5-Fluoro-2-[3-(4-nitrobenzoyloxy)-4-methoxyphenyl]benzothiazole], the melting point was 198 °C.
The compound `COc1ccc(-c2nc3cc(F)ccc3s2)cc1` [Compound 29, 5-Fluoro-2-(4-methoxyphenyl)benzothiazole] registered a melting point of 123 to 124 °C. Besides, the GI50 with KM 12 (setting [2]) was found to be 24600 nM. In the data set on HCC 2998 (setting [3]), the GI50 came to 12400 nM. The GI50 in the data set on MCF-7 (setting [4]) came to 490 nM. The GI50 in the data set on MDA 468 (setting [5]) is 330 nM.
Consider `COc1ccc(-c2nc3cc(F)ccc3s2)cc1OC(=O)c1ccccc1Br` [Compound 16, 2-[3-(2-Bromobenzoyloxy)-4-methoxyphenyl]-5-fluorobenzothiazole], for which the melting point lay within 220 to 223 °C.
With `Oc1ccc(-c2nc3cc(F)ccc3s2)cc1O` [Compound 9, 5-Fluoro-2-(3,4-dihydroxyphenyl)benzothiazole], the melting point came out at 197 °C. In addition, the “growth inhibitory potency in words” value in data set [1] is reported as “dyschemotherapeutic effect”.
In turn, `COc1ccc(-c2nc3cc(F)ccc3s2)cc1OC(=O)c1ccccc1Cl` [Compound 15, 2-[3-(2-Chlorobenzoyloxy)-4-methoxyphenyl]-5-fluorobenzothiazole] yielded a melting point of 190 °C.
`COc1ccc(-c2nc3cc(F)ccc3s2)c(OC)c1OC` [Compound 50, 2-(2,3,4-Trimethoxyphenyl)-5-fluorobenzothiazole] registered a melting point of 109 to 110 °C. The GI50 in the data set with KM 12 (value in nM) worked out at 2905.3 nM. Besides, in the data set on HCC 2998 (HCC 2998, HCC 2998 (colon), value in nM), the GI50 was found to be 203 nM. Also, the 50% growth inhibitory concentration (GI50) in the data set on MCF-7 (setting [6]) worked out at 157 nM. Also, the GI50 in the data set on MDA 468 (value in nM) stood at 336 nM.
Take `COc1ccc(-c2nc3cc(F)ccc3s2)cc1I` [Compound 28, 5-Fluoro-2-(3-iodo-4-methoxyphenyl)benzothiazole]: the melting point worked out at 167 °C. Moreover, the concentration for 50% growth inhibition (GI50) in the data set with KM 12 (setting [2]) stood at 6900 nM. In the data set with HCC 2998 (setting [3]), the GI50 stood at 940 nM. Further, the GI50 in the data set on MCF-7 (setting [4]) was determined as 820 nM. Besides, the GI50 in the data set with MDA 468 (setting [5]) stood at 360 nM.
`COc1cc(-c2nc3cc(F)ccc3s2)ccc1OC(=O)N1CCOCC1` [Compound 20, 5-Fluoro-2-[4-(morpholin-4-ylcarbonyloxy)-3-methoxyphenyl]benzothiazole]: the melting point amounted to 126 °C.
